The experiment deals with SNB-75 viability, CellTiter-Glo ATP luminescence, 8-48 h. Kind of experiment: cytotoxicity in SNB-75 CNS cells – cell-based, CellTiter-Glo ATP luminescence, several timepoints, dry powder, mechanism study for HRAS target identification, late-stage follow-up (AID 720624).

Inconclusive results are not listed.

Five compounds from PubChem BioAssay AID720624 (Broad Institute, 2013) can be followed below.

Regarding `COc1ccc(N(C(=O)CCl)C(C(=O)NCCc2ccccc2)c2cccs2)cc1Cl` (stereo not given), the AC50 worked out at 298 nM (measured here: 8 h treatment), 246 nM (measured here: 24 h treatment) and 319 nM (measured here: 48 h treatment).
For `Cc1onc(C(=O)N2CCN(C(c3ccc(Cl)cc3)c3ccc(Cl)cc3)CC2)c1[N+](=O)[O-]`, in that order: 629 nM, 490 nM and 1050 nM.
Consider `COC(=O)c1ccc([C@@H]2c3[nH]c4ccccc4c3C[C@@H](C(=O)OC)N2C(=O)CCl)cc1`, for which the AC50 by setting is: (measured here: 8 h treatment) 479 nM; (measured here: 24 h treatment) 224 nM; (measured here: 48 h treatment) 418 nM.
For `CC(C)(C)OC(=O)NCCOCCOCCOc1ccc(N(C(=O)CCl)C(C(=O)NCCc2ccccc2)c2cccs2)cc1Cl` (stereo not given), in that order: 787 nM, 398 nM and 1030 nM.
On the same counts, the results for `C#CCCCC(=O)NCCOCCOCCOc1ccc(N(C(=O)CCl)C(C(=O)NCCc2ccccc2)c2cccs2)cc1Cl` (stereo not given) are 3810 nM, 2480 nM and 4780 nM.
